14 compounds from EP3730489A1, “HETEROARYL COMPOUNDS AS AGROCHEMICAL FUNGICIDES” (BASF SE, priority 2019, dated 2020) can be followed below.

Assay type in all cases: cell-based
One test deals with Septoria tritici. Briefly: Activity against leaf blotch on wheat caused by Septoria tritici (Septtr), microtiter plate test. Particulars: relative growth vs active compound-free control (100%), measured at 405 nm 7 days after the inoculation. On the procedure:
(§1) The active compounds were formulated separately as a stock solution having a concentration of 10000 ppm in dimethyl sulfoxide.
3. Activity against leaf blotch on wheat caused by Septoria tritici (Septtr)
The stock solutions were mixed according to the ratio, pipetted onto a micro titer plate (MTP) and diluted with water to the stated concentrations. A spore suspension of Septoria tritici in an aqueous biomalt or yeast-bactopeptone-glycerine solution was then added. The plates were placed in a water vapor-saturated chamber at a temperature of 18°C. Using an absorption photometer, the MTPs were measured at 405 nm 7 days after the inoculation.
(§2) The measured parameters were compared to the growth of the active compound-free control variant (100%) and the fungus-free and active compound-free blank value to determine the relative growth in % of the pathogens in the respective active compounds.

The subject of a further test is Fusarium culmorum. The test is described as follows: Activity against Fusarium culmorum (Fusacu), microtiter plate test. The conditions noted are these: relative growth vs active compound-free control (100%), measured at 405 nm 7 days after the inoculation; for activity at 31 ppm: Fusarium culmorum, 168 h. The protocol: as §1
4. Activity against Fusarium culmorum (Fusacu)
The stock solutions were mixed according to the ratio, pipetted onto a micro titer plate (MTP) and diluted with water to the stated concentrations. A spore suspension of Fusarium culmorum in an aqueous biomalt or yeast-bactopeptone-glycerine solution was then added. The plates were placed in a water vapor-saturated chamber at a temperature of 18°C. Using an absorption photometer, the MTPs were measured at 405 nm 7 days after the inoculation.
as §2

A further test deals with Botrytis cinerea. The test is described as follows: Activity against the grey mold Botrytis cinerea in the microtiterplate test (Botrci). The conditions noted are these: relative growth vs active compound-free control (100%), measured at 405 nm 7 days after the inoculation. On the procedure:
as §1
1. Activity against the grey mold Botrytis cinerea in the microtiterplate test (Botrci)
The stock solutions were mixed according to the ratio, pipetted onto a micro titer plate (MTP) and diluted with water to the stated concentrations. A spore suspension of Botrci cinerea in an aqueous biomalt or yeast-bactopeptone-sodiumacetate solution was then added. The plates were placed in a water vapor-saturated chamber at a temperature of 18°C. Using an absorption photometer, the MTPs were measured at 405 nm 7 days after the inoculation.
as §2

Turning to “3-[3-(trifluoromethyl)-2-thienyl]-1H-indole-5-carbonitrile [Example 1]”, the “growth (%) at 31ppm Septtr” value with Septoria tritici is 14%. For the same compound, the “growth (%) at 31ppm Fusacu” value in the test with Fusarium culmorum is 0%.
`Brc1ccc2[nH]cc(-c3sccc3Br)c2c1` [Example P3]: in the test with Septoria tritici, the “growth (%) at 31ppm Septtr” value came out at 0%. Also, the activity at 31 ppm in the test with Fusarium culmorum stood at 0%. Further, the “growth (%) at 31ppm Botrci” value in the test on Botrytis cinerea worked out at 0%.
Take `N#Cc1ccc2[nH]cc(-c3sccc3Br)c2c1` [Example P4]: in the test with Fusarium culmorum, the activity at 31 ppm stood at 17%.
Turning to `N#Cc1ccc2[nH]cc(-c3ocnc3C(F)(F)F)c2c1` [Example 2, 3-[4-(trifluoromethyl)oxazol-5-yl]-1H-indole-5-carbonitrile], the activity at 31 ppm with Fusarium culmorum was found to be 7%. In the test on Botrytis cinerea, the “growth (%) at 31ppm Botrci” value turned out to be 6%.
Turning to `FC(F)Oc1ccc2[nH]cc(-c3sccc3C(F)(F)F)c2n1` [Example P5], the “growth (%) at 31ppm Septtr” value in the test on Septoria tritici turned out to be 4%. The compound also came in with an activity at 31 ppm with Fusarium culmorum of 0%. Moreover, the “growth (%) at 31ppm Botrci” value in the test with Botrytis cinerea came out at 1%.
As for `C#Cc1ccc2[nH]cc(-c3sccc3Cl)c2c1` [Example P2], in the test with Septoria tritici, the “growth (%) at 31ppm Septtr” value stood at 12%. The compound also yielded an activity at 31 ppm in the test on Fusarium culmorum of 1%. Besides, in the test with Botrytis cinerea, the “growth (%) at 31ppm Botrci” value stood at 1%.
In the test with Fusarium culmorum, `Fc1ncc2[nH]cc(-c3sccc3C(F)(F)F)c2n1` [Example P17] displayed an activity at 31 ppm of 14%.
In turn, `Fc1cnc2[nH]cc(-c3ocnc3C(F)(F)F)c2c1` [Example 8, 5-(5-fluoro-1H-pyrrolo[2,3-b]pyridin-3-yl)-4-(trifluoromethyl)oxazole] had an activity at 31 ppm with Fusarium culmorum of 6%.
As for `C#Cc1cnc2[nH]cc(-c3ocnc3Br)c2c1` [Example P8], the “growth (%) at 31ppm Septtr” value with Septoria tritici is 15%. In addition, the activity at 31 ppm in the test with Fusarium culmorum stood at 0%.
As for `Clc1ccsc1-c1c[nH]c2ccc(Br)cc12` [Example P1], in the test on Septoria tritici, the “growth (%) at 31ppm Septtr” value is reported as 8%. Moreover, the activity at 31 ppm in the test on Fusarium culmorum was 1%. In the test on Botrytis cinerea, the “growth (%) at 31ppm Botrci” value was 0%.
`C#Cc1cnc2[nH]cc(-c3ocnc3C(F)F)c2c1` [Example P10] gave an activity at 31 ppm in the test with Fusarium culmorum of 6%.
For the compound `FC(F)(F)c1ncoc1-c1c[nH]c2ccc(Br)cc12` [Example P6], the “growth (%) at 31ppm Septtr” value with Septoria tritici is reported as 2%. Moreover, the “growth (%) at 31ppm Botrci” value with Botrytis cinerea is recorded as 1%.
Turning to `C#Cc1cnc2[nH]cc(-c3ocnc3C(F)(F)F)c2c1` [Example 6, 5-(5-ethynyl-1H-pyrrolo[2,3-b]pyridin-3-yl)-4-(trifluoromethyl)oxazole], the “growth (%) at 31ppm Septtr” value in the test with Septoria tritici is given as 12%. Further, the activity at 31 ppm in the test on Fusarium culmorum is 1%. For the same compound, the “growth (%) at 31ppm Botrci” value in the test on Botrytis cinerea was 5%.
The compound `Fc1cnc2[nH]cc(-c3ocnc3I)c2c1` [Example 9, 5-(5-fluoro-1H-pyrrolo[2,3-b]pyridin-3-yl)-4-iodooxazole] displayed an activity at 31 ppm in the test on Fusarium culmorum of 11%.
